Results on 16 molecules are retold here after patent US12612409B2, “Pyrrolopyrimidines as CFTR potentiators” (Cystic Fibrosis Foundation, priority 2016, dated 2026).

pEC50: −log10 of the molar value.

Assay [1] deals with T1, CFTR in F508del/F508del primary CF hBE cells (Homo sapiens, UniProt P13569, DEL508-508).
T1 construct: Primary cystic fibrosis human bronchial epithelial (CF hBE) cells were expanded and cultured; endogenous in cells; host or cells: primary CF human bronchial epithelial cells, genotype F508del/F508del
T1 sequence (P13569 with tags, fused parts or gaps DEL508-508): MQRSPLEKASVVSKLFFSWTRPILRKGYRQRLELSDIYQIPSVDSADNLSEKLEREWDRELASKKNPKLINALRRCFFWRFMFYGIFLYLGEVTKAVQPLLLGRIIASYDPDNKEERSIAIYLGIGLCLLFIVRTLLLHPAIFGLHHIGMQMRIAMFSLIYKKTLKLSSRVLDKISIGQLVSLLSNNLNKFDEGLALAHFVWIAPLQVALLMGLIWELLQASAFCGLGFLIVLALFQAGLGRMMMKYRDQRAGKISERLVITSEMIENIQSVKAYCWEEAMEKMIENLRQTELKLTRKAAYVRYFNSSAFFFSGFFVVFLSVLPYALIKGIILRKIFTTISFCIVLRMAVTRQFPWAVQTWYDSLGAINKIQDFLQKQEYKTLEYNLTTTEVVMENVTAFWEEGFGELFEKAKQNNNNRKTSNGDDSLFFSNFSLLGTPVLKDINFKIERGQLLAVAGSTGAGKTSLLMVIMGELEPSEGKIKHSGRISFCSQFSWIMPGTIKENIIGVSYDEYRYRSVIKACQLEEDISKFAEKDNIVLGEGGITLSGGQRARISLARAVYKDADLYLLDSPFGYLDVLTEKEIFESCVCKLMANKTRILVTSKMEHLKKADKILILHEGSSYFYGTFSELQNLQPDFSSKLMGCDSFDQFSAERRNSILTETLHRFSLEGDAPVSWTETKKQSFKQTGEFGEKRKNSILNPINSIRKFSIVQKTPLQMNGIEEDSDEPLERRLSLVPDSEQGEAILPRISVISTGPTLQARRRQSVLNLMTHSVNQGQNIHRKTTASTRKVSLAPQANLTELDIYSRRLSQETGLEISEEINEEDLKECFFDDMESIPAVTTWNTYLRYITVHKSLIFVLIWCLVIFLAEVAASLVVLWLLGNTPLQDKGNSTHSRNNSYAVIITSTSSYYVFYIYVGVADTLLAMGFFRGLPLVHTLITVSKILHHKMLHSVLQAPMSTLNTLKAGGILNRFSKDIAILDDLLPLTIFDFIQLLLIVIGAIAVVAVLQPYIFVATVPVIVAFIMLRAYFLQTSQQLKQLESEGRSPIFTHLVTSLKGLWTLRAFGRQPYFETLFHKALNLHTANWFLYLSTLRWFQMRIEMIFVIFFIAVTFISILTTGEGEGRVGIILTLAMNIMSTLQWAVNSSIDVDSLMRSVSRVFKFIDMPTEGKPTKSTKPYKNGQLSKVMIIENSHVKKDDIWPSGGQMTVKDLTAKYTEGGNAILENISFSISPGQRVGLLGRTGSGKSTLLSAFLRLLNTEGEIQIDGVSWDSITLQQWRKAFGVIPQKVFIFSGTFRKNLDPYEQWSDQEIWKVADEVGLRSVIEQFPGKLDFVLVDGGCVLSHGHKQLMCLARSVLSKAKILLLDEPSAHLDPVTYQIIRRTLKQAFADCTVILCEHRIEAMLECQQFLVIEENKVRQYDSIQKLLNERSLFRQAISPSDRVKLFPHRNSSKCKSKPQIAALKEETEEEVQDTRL
As to the kind of experiment: Ussing chamber electrophysiology assay of CFTR potentiation in F508del/F508del CF bronchial epithelial cells (27° C.). It counts as cell-based. The method, boiled down:
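Short-circuit current was recorded under zero-voltage clamp across primary CF bronchial epithelia cultured >30 days at air/liquid interface, bathed apically and basolaterally in HEPES-buffered saline. Sequential additions: amiloride (30 uM), forskolin (10 uM), compound at 4 increasing levels, CFTRinh-172 (20 uM). Responses normalised between DMSO (0%) and maximal positive-control potentiator (100%).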

In assay [2] the target is T2, recombinant F508del V470 CFTR in Fischer rat thyroid (FRT) cells (Homo sapiens, UniProt P13569, DEL508-508).
T2 construct: expressed in transfected cells
T2 sequence (P13569 with tags, fused parts or gaps DEL508-508): as above
As to the kind of experiment: FRT ion flux assay of F508del CFTR potentiation. Format: cell-based. Conditions: FRT cells expressing F508del V470 CFTR, forskolin 20 uM, 27° C. pre-incubation. The gist of the method:
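Potentiation read as YFP quench ~21 s after iodide buffer addition, as second/initial fluorescence ratio normalised between DMSO (0%) and reference potentiator (100%).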

Turning to `CCC(c1cn(-c2ccccc2)nn1)n1cc(-c2cnc(C(F)(F)F)nc2)c2c(N)ncnc21` (single isomer, unassigned; enantiomer 2) [Example 130, 7-[1-(1-Phenyl-1H-1,2,3-triazol-4-yl)propyl]-5-[2-(trifluoromethyl)pyrimidin-5-yl]-7H-pyrrolo[2,3-d]pyrimidin-4-amine, enantiomer 2], the pEC50 in assay [1] was 6.73; in assay [2], 6.63.
As to `CCC(c1cn(-c2ccccc2F)nn1)n1cc(-c2ccc(Cl)cc2)c2c(N)ncnc21` (single isomer, unassigned; enantiomer 2) [Example 132, (+) 5-(4-Chlorophenyl)-7-{1-[1-(2-fluorophenyl)-1H-1,2,3-triazol-4-yl]propyl}-7H-pyrrolo[2,3-d]pyrimidin-4-amine, enantiomer 2], the values for the pEC50 in assay [1] and in assay [2] were 7.95 and 7.42, respectively.
The like results for `CCC(c1cn(-c2ccccc2F)nn1)n1cc(-c2nccnc2OC)c2c(N)ncnc21` (single isomer, unassigned; enantiomer 2) [Example 136, (+) 7-{1-[1-(2-Fluorophenyl)-1H-1,2,3-triazol-4-yl]propyl}-5-(3-methoxypyrazin-2-yl)-7H-pyrrolo[2,3-d]pyrimidin-4-amine, enantiomer 2] were, in that order, 8.46 and 7.81.
Consider `CCC(c1cn(-c2ccccc2F)nn1)n1cc(-c2cnc(C(F)(F)F)nc2)c2c(N)ncnc21` (single isomer, unassigned; enantiomer 2) [Example 138, 7-{1-[1-(2-Fluorophenyl)-1H-1,2,3-triazol-4-yl]propyl}-5-[2-(trifluoromethyl)pyrimidin-5-yl]-7H-pyrrolo[2,3-d]pyrimidin-4-amine, enantiomer 2], for which the pEC50 in assay [1] and in assay [2] was 6.58 in each case.
In the case of `CCC(c1cn(-c2ccccc2F)nn1)n1cc(-c2cc(F)cnc2OC)c2c(N)ncnc21` (single isomer, unassigned; enantiomer 2) [Example 140, (−) 5-(5-Fluoro-2-methoxypyridin-3-yl)-7-{1-[1-(2-fluorophenyl)-1H-1,2,3-triazol-4-yl]propyl}-7H-pyrrolo[2,3-d]pyrimidin-4-amine, enantiomer 2], the figures for the pEC50 in assay [1] and in assay [2] were 7.20 and 6.77, respectively.
`CCC(c1cn(-c2ccccc2F)nn1)n1cc(-c2ccc(OC(F)F)nc2)c2c(N)ncnc21` (single isomer, unassigned; enantiomer 2) [Example 142, (+) 5-[6-(Difluoromethoxy)pyridin-3-yl]-7-{1-[1-(2-fluorophenyl)-1H-1,2,3-triazol-4-yl]propyl}-7H-pyrrolo[2,3-d]pyrimidin-4-amine, enantiomer 2]: the pEC50 in assay [1] was 8.34; in assay [2], 8.30.
On to `CCC(c1cn(-c2ccccc2F)nn1)n1cc(-c2cc[nH]n2)c2c(N)ncnc21` (single isomer, unassigned; enantiomer 2) [Example 148, 7-{1-[1-(2-Fluorophenyl)-1H-1,2,3-triazol-4-yl]propyl}-5-(1H-pyrazol-3-yl)-7H-pyrrolo[2,3-d]pyrimidin-4-amine, enantiomer 2], for which the values for the pEC50 in assay [1] and in assay [2] were 7.59 and 7.91, respectively.
Consider `CCC(c1cn(-c2ccc(F)cc2)nn1)n1cc(-c2cncnc2OC)c2c(N)ncnc21` (single isomer, unassigned; enantiomer 2) [Example 150, (−) 7-{1-[1-(4-Fluorophenyl)-1H-1,2,3-triazol-4yl]propyl}-5-(4-methoxypyrimidin-5-yl)-7H-pyrrolo[2,3-d]pyrimidin-4-amine, enantiomer 2], for which the pEC50 in assay [1] is 6.03; in assay [2], 6.53.
Take `CCC(c1cn(-c2ccc(F)c(F)c2)nn1)n1cc(-c2cncnc2OC)c2c(N)ncnc21` (single isomer, unassigned; enantiomer 2) [Example 152, (−) 7-{1-[1-(3,4-Difluorophenyl)-1H-1,2,3-triazol-4-yl]propyl}-5-(4-methoxypyrimidin-5-yl)-7H-pyrrolo[2,3-d]pyrimidin-4-amine, enantiomer 2]: the pEC50 in assay [1] is 6.35; in assay [2], 6.74.
As for `CCC(c1cn(-c2ccc(F)c(F)c2)nn1)n1cc(-c2cnc(C(F)(F)F)nc2)c2c(N)ncnc21` (single isomer, unassigned; enantiomer 2) [Example 154, 7-{1-[1-(3,4-Difluorophenyl)-1H-1,2,3-triazol-4-yl]propyl}-5-[2-(trifluoromethyl)pyrimidin-5-yl]-7H-pyrrolo[2,3-d]pyrimidin-4-amine, enantiomer 2], the pEC50 was 6.49 in assay [1] and 6.20 in assay [2].
As for `CCC(c1cn(-c2ccc(F)c(F)c2)nn1)n1cc(-c2cc(F)cnc2OC)c2c(N)ncnc21` (single isomer, unassigned; enantiomer 2) [Example 156, 7-{1-[1-(3,4-Difluorophenyl)-1H-1,2,3-triazol-4-yl]propyl}-5-(5-fluoro-2-methoxypyridin-3-yl)-7H-pyrrolo[2,3-d]pyrimidin-4-amine, enantiomer 2], the pEC50 in assay [1] was 7.24; in assay [2], 6.64.
For the molecule `CCC(c1cn(-c2ccc(F)c(F)c2)nn1)n1cc(-c2cnc(OC)c(F)c2)c2c(N)ncnc21` (single isomer, unassigned; enantiomer 2) [Example 158, 7-{1-[1-(3,4-Difluorophenyl)-1H-1,2,3-triazol-4-yl]propyl}-5-(5-fluoro-6-methoxypyridin-3-yl)-7H-pyrrolo[2,3-d]pyrimidin-4-amine, enantiomer 2], the negative-log EC50 (pEC50) was 7.71 in assay [1] and 6.95 in assay [2].
Turning to `CCC(c1cn(-c2ccc(F)cc2F)nn1)n1cc(-c2cncnc2OC)c2c(N)ncnc21` (single isomer, unassigned; enantiomer 2) [Example 160, (−) 7-{1-[1-(2,4-Difluorophenyl)-1H-1,2,3-triazol-4-yl]propyl}-5-(4-methoxypyrimidin-5-yl)-7H-pyrrolo[2,3-d]pyrimidin-4-amine, enantiomer 2], the pEC50 is 6.23 in assay [1] and 6.35 in assay [2].
The like results for `CCC(c1cn(-c2ccc(F)cc2F)nn1)n1cc(-c2cc(F)cnc2OC)c2c(N)ncnc21` (single isomer, unassigned; enantiomer 2) [Example 164, 7-{1-[1-(2,4-Difluorophenyl)-1H-1,2,3-triazol-4-yl]propyl}-5-(5-fluoro-2-methoxypyridin-3-yl)-7H-pyrrolo[2,3-d]pyrimidin-4-amine, enantiomer 2] were, in that order, 8.34 and 8.09.
The like results for `CCC(c1cn(-c2ccc(F)cc2F)nn1)n1cc(-c2cnc(OC)c(F)c2)c2c(N)ncnc21` (single isomer, unassigned; enantiomer 2) [Example 166, 7-{1-[1-(2,4-Difluorophenyl)-1H-1,2,3-triazol-4-yl]propyl}-5-(5-fluoro-6-methoxypyridin-3-yl)-7H-pyrrolo[2,3-d]pyrimidin-4-amine, enantiomer 2] were, in that order, 8.05 and 7.61.
`CCC(c1cn(-c2ccc(F)cc2F)nn1)n1cc(-c2cnc(C(F)F)nc2)c2c(N)ncnc21` (single isomer, unassigned; enantiomer 2) [Example 168, 5-[2-(Difluoromethyl)pyrimidin-5-yl]-7-{1-[1-(2,4-difluorophenyl)-1H-1,2,3-triazol-4-yl]propyl}-7H-pyrrolo[2,3-d]pyrimidin-4-amine, enantiomer 2]: the pEC50 in assay [1] is 5.63; in assay [2] it was 5.53.
